For data set [1], the target named is V-type proton ATPase subunit C (Manduca sexta) (UniProt Q9U5N1). The data set can be described thus: Inhibition of tobacco hornworm V-ATPase c subunit.
Data set [2] has the same target. The data set can be described thus: Binding affinity to tobacco hornworm V-ATPase c subunit in 4:4:1 CDCl3:MeOH-d4:D2O by NMR analysis.
A short description of data set [3]: Solubility of the compound in 40:40:1 CDCl3:MeOH-d4:D2O at 1 mM by NMR analysis. Format: physicochemical. The following applies: 1000 µM.
A short description of data set [4]: Solubility in 2 mM LMPC at 0.5 mM by NMR analysis. Format: physicochemical. The following applies: 500 µM.
Data set [5] in a line: Solubility in 17 mM DHPC at 1 mM by NMR analysis. The following applies: 1000 µM. In kind it is physicochemical.
A short description of data set [6]: Solubility in 3 mM DPC at 0.5 mM by NMR analysis. In kind it is physicochemical. The following applies: 500 µM.
Data set [7] in a line: Solubility of the compound in 5:95 EtOH-d6:D2O solution at 0.5 mM by NMR analysis. In kind it is physicochemical. The following applies: 500 µM.
A short description of data set [8]: Solubility of the compound in 5:95 MeOH-d4:D2O solution at 0.5 mM by NMR analysis. In kind it is physicochemical. The following applies: 500 µM.
Data set [9] can be described thus: Solubility of the compound in 5:95 EtOH-d6:D2O solution at 1 mM by NMR analysis. Format: physicochemical. Conditions: 1000 µM.
Data set [10] can be described thus: Solubility in 50 mM OG at 0.5 mM by NMR analysis. In kind it is physicochemical. Conditions: 500 µM.
Data set [11] can be described thus: Solubility of the compound in 50:50 DMSO-d6:D2O solution at 1 mM by NMR analysis. In kind it is physicochemical. The following applies: 1000 µM.
A short description of data set [12]: Solubility of the compound in 5:95 CNCD3-d6:D2O solution at 1 mM by NMR analysis. Format: physicochemical. Conditions: 1000 µM.
Data set [13] can be described thus: Solubility of the compound in 42:9:49 EtOH-d6:CNCD3:D2O solution at <0.5 mM by NMR analysis. Format: physicochemical.
Data set [14] is described as follows: Solubility in 4 mM LDAO at 1 mM by NMR analysis. Format: physicochemical. The following applies: 1000 µM.
Data set [15] in a line: Solubility of the compound in 10:90 MeOH-d4:D2O solution at 0.5 mM by NMR analysis. In kind it is physicochemical. Conditions: 500 µM.
Data set [16] in a line: Solubility of the compound in 10:90 DMSO-d6:D2O solution at 0.5 mM by NMR analysis. Conditions: 500 µM. In kind it is physicochemical.
Data set [17] in a line: Solubility in 0.4 mM OG at 0.5 mM by NMR analysis. Format: physicochemical. Conditions: 500 µM.

Calls of active or inactive are those of the source. The calls are words filed in the database; no cut-off is given here.

V-type proton ATPase subunit C (Manduca sexta), sequence (Q9U5N1 whole entry): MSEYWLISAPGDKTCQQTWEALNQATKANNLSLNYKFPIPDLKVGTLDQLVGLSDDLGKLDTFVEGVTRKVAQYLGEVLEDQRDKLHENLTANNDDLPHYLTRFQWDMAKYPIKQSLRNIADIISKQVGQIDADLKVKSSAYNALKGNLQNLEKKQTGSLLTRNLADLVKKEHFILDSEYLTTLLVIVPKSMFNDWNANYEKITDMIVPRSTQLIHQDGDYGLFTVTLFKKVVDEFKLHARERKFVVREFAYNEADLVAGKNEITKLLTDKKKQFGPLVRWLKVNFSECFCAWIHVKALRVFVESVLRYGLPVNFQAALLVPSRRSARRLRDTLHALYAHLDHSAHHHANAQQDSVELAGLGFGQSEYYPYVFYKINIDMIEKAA

Take `C=CCOP(=O)(O)CC(=O)O[C@@H]1/C=C/C(C)=C\C(C)=C/[C@H](C)[C@H](OC(=O)CP(=O)(O)OCC=C)/C=C(\C)C/C=C/C(=O)O[C@H](c2csc([C@H](CC(C)C)OC(=O)NC)n2)[C@@H](C)/C=C/C=C(\C)[C@@H](OC)[C@H]1C`: the inhibition entry in data set [1] is “inactive”.

On to `CNC(=O)O[C@@H](CC(C)C)c1nc([C@H]2OC(=O)/C(C)=C/C/C(C)=C/[C@@H](O[C@@H]3O[C@H](CO)[C@@H](O)[C@H](O)[C@H]3O)[C@@H](C)\C=C(C)/C=C(C)\C=C\[C@@H](O)[C@H](C)[C@H](OC)/C(C)=C/C=C/[C@@H]2C)cs1`, for which the result in data set [2] was inactive.

With `CNC(=O)O[C@@H](CC(C)C)c1nc([C@H]2OC(=O)/C(C)=C/C/C(C)=C/[C@@H](O)[C@@H](C)\C=C(C)/C=C(C)\C=C\[C@@H](O)[C@H](C)[C@H](OC)/C(C)=C/C=C/[C@@H]2C)cs1` [ARCHAZOLID A], the solubility result in [3] is reported as “soluble”; in [4], “Insoluble”; in data set [5] it was “Insoluble”; in [6] it was “Insoluble”; in data set [7] it was “Insoluble”; in data set [8] it was “Insoluble”. The solubility entry in data set [9], in [10], in data set [11], in [12], in data set [13] and in data set [14] was “Insoluble” each time. The solubility entry in [15], in data set [16] and in data set [17] was “Insoluble” throughout. The outcome in [2] was inactive.

The values are drawn from ChEMBL document CHEMBL2203048, “Synthesis and biological evaluation of a water-soluble derivative of the potent V-ATPase inhibitor archazolid” (Bioorg Med Chem Lett, 2012).
